# Where “and” joins values, the source holds several entries; their conditions need not be identical. Equal values may be shown once. Where a name gives a salt, the structure may show the parent alone.
# Columns and labels:
# [1] = In vitro excised skin iontophoretic delivery (flow-through cells); assay type: in vitro ADME, porcine; conditions: for delivery rate (FIG. 7): 50 mg/mL chloride salt
# Method: Patch Designs: The 2 compartment patch design includes an absorbent drug reservoir with 2 cm^2 skin-contacting area and volume of 0.30 mL. The drug reservoir is separated from the electrode compartment with a 100 MWCO ultrafiltration membrane. The electrode compartment included a silver anode and cation exchange media in a hydrogel. A monolithic patch design was also used, consisting of a sandwich composed of a silver anode in the middle of 2 layers of absorbent material. The patches are assembled and loaded with the dosing solution just before applying to the skin.
# Experimental Protocol: The iontophoretic delivery of a GPIIb/IIIa antagonist was carried out in a flow-through in vitro system. […] The patch was loaded a 10 mg/mL solution of the IIb/IIIa antagonist in 154 mM saline.
# A silver chloride mesh return cathode was located upstream of the polycarbonate flow-through cells. Freshly dermatomed (1 mm) porcine skin was mounted in the cells on a porous support. The patches were dosed with aqueous solutions of the drug and then placed on top of the excised skin. The patches were secured by a spring-loaded mechanism that maintained even pressure over the patch. The cells were "perfused" by means of a peristaltic pump which pulls receiver solution through them. Effluents from the cells were collected with a fraction collector. Flow rates were typically 0.25 mL/min. The receiver solution was an isotonic pH 7.4 buffered saline solution containing 10 mM HEPES, 100 mM NaCl, PEG 400, and a surfactant, Pluronic P-103. lontophoresis current (50 μA) was provided by WPI power cells, and the applied currents and cell voltages were recorded with a Fluke databucket.
# Results: The effluent receiver solution was measured in a series of six runs, to determine whether the ester was hydrolyzed during the period of the iontophoresis. Results were obtained by means of liquid scintillation counting (radioactivity), and HPLC-UV. The HPLC results are estimates based on calibration for the ester form only.
# Patches: A dual compartment 2 cm^2 patch design, loaded with 100 mg/mL of the GPIIb/IIIa antagonist of Example 1, with a size exclusion or anion exchange membrane separator.
# Experimental Protocol: See Example 1, with current applied at 400 μA.
# Patches: A dual compartment 2 cm^2 patch design, loaded with 50 mg/mL chloride salt of the IIb/IIIa antagonist.
# Experimental Protocol: See Example 1, current applied at 100 μA and 200 μA.
# Patches: A dual compartment 2 cm^2 patch design, loaded with either: (1) a 1 mM NaCl, 150 mg/mL formulation of the IIb/IIIa antagonist of Example 1, or (2) a 75 mM NaCl, 100 mg/mL formulation of the drug.
# Experimental Protocol: See Example 1, current applied at 100 μA for the 1 mM NaCl sample, and at 400 μA for the 75 mM NaCl sample.
# [2] = Assay of extracts of the patch following completion of iontophoresis; assay type: in vitro ADME
# [3] = In vivo swine experiments (iontophoretic delivery, plasma levels; comparison with constant IV infusion); design: species or system Yorkshire swine
# Method: Patch Design: Same as in Example 1.
# Experimental Protocol: In each experiment, the patches were loaded with a 20 mg/mL solution of the same IIb/IIIa antagonist used in Example 1 in 154 mM saline, immediately before application to the skin of the animals. Unanesthetized Yorkshire swine with weights of about 20 to 35 kg were used. The skin sites receiving the patches were wiped clean with moist gauze pads. Patches were overwrapped with an adhesive, elastic wrap to hold the patches in place. Separate constant current (100 μA) power supplies were provided for each iontophoresis patch system. Current and voltage readings were made and recorded by on-board dataloggers (Fluke databuckets).
# Blood samples were withdrawn from the vena cava through an IV catheter into VACUTAINER™ blood collection tubes containing EDTA. After gentle mixing, the tubes were centrifuged to separate the plasma, which was transferred to clean polypropylene tubes and frozen on dry ice. Frozen samples were stored at -80° C. until assayed.
# Results: FIGS. 4 and 5 provide a comparative illustration of the in vivo delivery of the GPIIb/IIIa antagonist (mentioned in Example 1) to pigs using constant IV infusion (FIG. 4) and constant iontophoresis (FIG. 5). IV infusion employed the acid form of the drug at an infusion rate of 10 μg/h.
# [4] = Physicochemical properties; conditions: pH 4
constancy of flux (FIG. 3) [1],"delivery rate profile (FIG. 8) ([1]; 1 mM NaCl, 150 mg/mL at 100 μA and 75 mM NaCl, 100 mg/mL at 400 μA, 24 hour iontophoresis)","dependence of in vitro delivery on current (FIG. 3) ([1]; 10 mg/mL drug, 9 mg/mL NaCl)","variability in delivery from skin to skin (FIG. 2) ([1]; 10 mg/mL, 154 mM NaCl, 50 μA)","delivery, anion exchange compared with size exclusion membrane patch (FIG. 6) ([1]; dual compartment 2 cm^2 patch, 100 mg/mL, 400 μA)",metabolism of the positively charged ester to the uncharged zwitterion ([1]; in the skin or receptor fluid),acid hydrolysis product in extracts of the patch [2],variability in plasma levels with iontophoresis ([3]; 20 mg/mL in 154 mM saline patch),"blood levels, iontophoresis compared with constant IV infusion (FIGS. 4 and 5) ([3]; 20 mg/mL in 154 mM saline patch vs acid form IV at 10 μg/h, plasma acid drug form)",solubility [4] [mg/mL],"delivery rate (FIG. 7) ([1]; 100 μA, nearly flat delivery) [µg/h]","delivery rate (FIG. 7) ([1]; 200 μA, nearly constant delivery) [µg/h]",Compound,"delivery rate profile (FIG. 6) ([1]; dual compartment patches, 100 mg/mL, 400 μA)","Total (Liquid Scintillation Assay) ([1]; effluent receiver solution, 10 mg/mL in 154 mM saline, 50 μA, six runs (sample 1-6))"
very constant over the 24 hour period,much more uniform delivery rates,proportional to increase in current,unexpectedly low,somewhat greater delivery,"metabolized, to some extent",no detectable acid hydrolysis product,extremely low,similar,80,–,–,"CCCCOC(=O)N[C@@H](CNC(=O)C[C@H]1CC(c2ccc(C(=N)N)cc2)=NO1)C(=O)OC [GPIIb/IIIa antagonist, methyl-N^3-[2-{3-(4-formamidinophenyl)-isoxazolin-5(R)-yl}-acetyl]-N^2-(n-butyloxycarbonyl)-2,3-(S)-diaminopropanoate]","the flux starts high, and falls as electrolyte cations accumulate with time",4.76 µg/mL and 4.15 µg/mL and 4.05 µg/mL and 4.87 µg/mL and 5.56 µg/mL and 5.19 µg/mL
–,–,–,–,–,–,–,–,–,–,10 to 20,20 to 35,CCCCOC(=O)N[C@@H](CNC(=O)C[C@H]1CC(c2ccc(C(=N)N)cc2)=NO1)C(=O)OC [chloride salt of the IIb/IIIa antagonist],–,–

# Source: US5961483A, “Iontophoretic delivery of cell adhesion inhibitors” (priority 1997, dated 1999)
